According to the supplement of paper PMC11061612:

Legend:
Assay in all cases: Bliss excess, mean over the matrix (fraction); higher = more synergy
[1] = system: HL-60 (Acute Myeloid Leukemia)
Procedure, shortened: (§1)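 Bliss excess equals the observed combination effect minus the expected value EA + EB − EA·EB, where EA and EB are the effects of each agent alone. Combination Emax is the second-highest inhibition within the matrix. Inhibition was scaled from CellTiter-Glo 2.0 luminescence, with 0 set by vehicle wells and 1 by blank wells, after 72 hours of two-drug dosing of cells plated in 1536-well plates.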

[2] = system: MOLT-16 (T-Lymphoblastic Leukemia)
Procedure, shortened: as §1

CHP-212 (Neuroblastoma) = system: CHP-212 (Neuroblastoma)
Procedure, shortened: as §1

[3] = system: KYSE-180 (Esophageal Squamous Cell Carcinoma)
Procedure, shortened: as §1

[4] = system: BFTC-905 (Bladder Carcinoma)
Procedure, shortened: as §1

[5] = system: KM12 (Colorectal Carcinoma)
Procedure, shortened: as §1

[6] = system: K-562 (Chronic Myelogenous Leukemia)
Procedure, shortened: as §1

LN-18 (Glioblastoma) = system: LN-18 (Glioblastoma)
Procedure, shortened: as §1

[7] = system: DND-41 (T-Lymphoblastic Leukemia)
Procedure, shortened: as §1

[8] = system: GR-ST (B-Lymphoblastic Leukemia)
Procedure, shortened: as §1

[9] = system: SR (Other Blood Carcinomas)
Procedure, shortened: as §1

WIL2-NS (Non-Cancerous) = system: WIL2-NS (Non-Cancerous)
Procedure, shortened: as §1

[10] = system: MS751 (Cervical Carcinoma)
Procedure, shortened: as §1

TC-71 (Ewing's Sarcoma) = system: TC-71 (Ewing's Sarcoma)
Procedure, shortened: as §1

ES1 (Ewing's Sarcoma) = system: ES1 (Ewing's Sarcoma)
Procedure, shortened: as §1

ES8 (Ewing's Sarcoma) = system: ES8 (Ewing's Sarcoma)
Procedure, shortened: as §1

[11] = system: NCI-H1792 (Lung Adenocarcinoma)
Procedure, shortened: as §1

[12] = system: TOV-112D (Ovarian Carcinoma)
Procedure, shortened: as §1

[13] = system: PANC-08-13 (Pancreatic Carcinoma)
Procedure, shortened: as §1

U251 (Low Grade Glioma) = system: U251 (Low Grade Glioma)
Procedure, shortened: as §1

SMILES	Bliss excess [1]	Bliss excess [2]	Bliss excess (CHP-212 (Neuroblastoma))	Bliss excess [3]	Bliss excess [4]	Bliss excess [5]	Bliss excess [6]	Bliss excess (LN-18 (Glioblastoma))	Bliss excess [7]	Bliss excess [8]	Bliss excess [9]	Bliss excess (WIL2-NS (Non-Cancerous))	Bliss excess [10]	Bliss excess (TC-71 (Ewing's Sarcoma))	Bliss excess (ES1 (Ewing's Sarcoma))	Bliss excess (ES8 (Ewing's Sarcoma))	Bliss excess [11]	Bliss excess [12]	Bliss excess [13]	Bliss excess (U251 (Low Grade Glioma))
NC1(C(=O)N[C@@H](CCO)c2ccc(Cl)cc2)CCN(c2ncnc3[nH]ccc23)CC1 [Capivasertib] + Cn1cnc2c(F)c(Nc3ccc(Br)cc3Cl)c(C(=O)NOCCO)cc21 [Selumetinib] (first compound max 10 µM, 7x7, partner max 10 µM)	0.021	0.0683	-0.0277	-0.0307	-0.0047	0.016	0.0713	0.0373	0.0293	-0.0428	0.0682	0.0482	0.0024	0.0203	0.0724	-0.0548	0.0276	0.0272	0.0495	0.0099
Cc1nc(Nc2ncc(C(=O)Nc3c(C)cccc3Cl)s2)cc(N2CCN(CCO)CC2)n1 [Dasatinib] + CC(=O)Nc1cccc(-n2c(=O)n(C3CC3)c(=O)c3c(Nc4ccc(I)cc4F)n(C)c(=O)c(C)c32)c1 [Trametinib] (first compound max 2 µM, 7x7, partner max 1 µM)	-0.159	-0.0184	0.0235	-0.0424	0.0926	-0.108	-0.0956	-0.0433	-0.0333	0.0189	-0.0069	0.133	-0.0099	-0.0333	-0.0643	0.0243	0.0422	0.0773	0.143	0.0682
COc1cccc2c1C(=O)c1c(O)c3c(c(O)c1C2=O)C[C@@](O)(C(=O)CO)C[C@@H]3O[C@H]1C[C@H](N)[C@H](O)[C@H](C)O1 [Doxorubicin] + Cc1cc2ncnn2cc1Nc1ncc2c(n1)n(C1CCOCC1)c(=O)n2C [AZD7648] (first compound max 1 µM, 7x7, partner max 10 µM)	0.108	0.143	0.0611	0.0587	0.131	0.0554	0.076	0.0386	0.115	0.0279	0.0651	0.0885	0.135	0.162	0.119	0.125	0.067	0.0679	-0.0102	0.0913
COc1cc2ncnc(Nc3ccc(F)c(Cl)c3)c2cc1OCCCN1CCOCC1 [Gefitinib] + CC(C)n1c(=O)n(C)c2cnc3cc(F)c(-c4ccc(OCCCN5CCCCC5)nc4)cc3c21 [AZD1390] (first compound max 10 µM, 7x7, partner max 0.3 µM)	-0.0852	-0.0401	-0.0352	-0.0621	-0.0821	-0.0406	-0.0304	-0.033	-0.0309	-0.0303	-0.0109	-0.0241	-0.0614	-0.0927	-0.0432	-0.0364	-0.0422	-0.0392	-0.0511	-0.0624
CS(=O)(=O)CCNCc1ccc(-c2ccc3ncnc(Nc4ccc(OCc5cccc(F)c5)c(Cl)c4)c3c2)o1 [Lapatinib] + C[C@@H](Oc1cc(-c2cnn(C3CCNCC3)c2)cnc1N)c1c(Cl)ccc(F)c1Cl [Crizotinib] (first compound max 10 µM, 7x7, partner max 10 µM)	0.019	0.0062	-0.0741	0.0476	-0.0525	-0.0327	-0.0453	-0.0342	-0.0272	-0.025	0.019	-0.0273	0.0207	-0.0079	-0.0346	-0.0424	-0.0342	0.0028	-0.0246	-0.0586
CC(=O)c1c(C)c2cnc(Nc3ccc(N4CCNCC4)cn3)nc2n(C2CCCC2)c1=O [Palbociclib] + CC1(C)CCC(CN2CCN(c3ccc(C(=O)NS(=O)(=O)c4ccc(NCC5CCOCC5)c([N+](=O)[O-])c4)c(Oc4cnc5[nH]ccc5c4)c3)CC2)=C(c2ccc(Cl)cc2)C1 [Venetoclax] (first compound max 10 µM, 7x7, partner max 1 µM)	-0.0215	0.0452	0.023	-0.012	-0.046	-0.0041	-0.0313	0.0187	-0.0292	0.0074	-0.0245	0.0278	-0.0251	-0.0129	-0.0214	0.0365	-0.0103	0.0283	-0.0361	-0.0348
CC(=O)c1c(C)c2cnc(Nc3ccc(N4CCNCC4)cn3)nc2n(C2CCCC2)c1=O [Palbociclib] + Cc1c2c(nn1C)CSCc1cc(n(C)n1)CSc1cc(c3ccccc3c1)OCCCc1c(C(=O)O)n(C)c3c-2c(Cl)ccc13 [AZD5991] (first compound max 10 µM, 7x7, partner max 1 µM)	-0.0214	-0.0427	0.0199	-0.0602	-0.0167	-0.0194	-0.0141	-0.0153	0.0043	0.0096	0.0286	-0.0608	-0.0294	-0.0182	-0.0169	0.0838	-0.0186	0.0428	-0.0427	-0.0479
CC(=O)c1c(C)c2cnc(Nc3ccc(N4CCNCC4)cn3)nc2n(C2CCCC2)c1=O [Palbociclib] + Cn1cnc2c(F)c(Nc3ccc(Br)cc3Cl)c(C(=O)NOCCO)cc21 [Selumetinib] (first compound max 10 µM, 7x7, partner max 10 µM)	0.0109	-0.0133	-0.0313	-0.0135	0.0595	0.0039	0.0221	0.0293	0.0601	0.0333	0.0352	-0.0133	-0.0445	-0.012	-0.0366	0.041	0.119	0.068	-0.0053	-0.0013
